# “And” between values parts separate entries of the source, which are not always exact repeats. Equal entries are not always repeated. Where two headings read alike, the source gives them in different places.
# How the values were obtained:
# Ehrlich cell [1] = conditions: first minute, high amino acid levels; cited from earlier work
# [2] = system: Na+-insensitive uptake, Ehrlich cell; assay: Uptake of amino acids by Ehrlich cells from Na+-free medium; assay type: cell-based, mice; conditions: for uptake (Table II): amino acid 1 mM, [Na+] 0; for inhibitory action on the uptake of methionine: choline has replaced Na+ (Table I); for Uptake of methionine in presence of inhibitor (Table I): labeled methionine 1 mM; for Uptake of methionine in presence of inhibitor (Table I) / Uptake of AIB in presence of inhibitor (Table I) / Uptake of labeled amino acid without inhibitor (Table I): no Na+; for Km: read-out: Km for the other amino acid (Table V), choline medium, 37 C, pH 7.4, 1 min, only approximate; for Km / Ratio of uptake Methionine/other amino acid (Table VI): absence of Na+; for Rate of methionine uptake (Table IV): 1 mM, Na+-free Krebs-Ringer phosphate medium; for Uptake of AIB in presence of inhibitor (Table I): labeled AIB 1 mM; for Uptake of labeled amino acid without inhibitor (Table I): labeled amino acid 1 mM, inhibitor 0
# [3] = system: Na+-sensitive transport system (system A) of the Ehrlich cell; assay: Na+-sensitive uptake of amino acids; assay type: cell-based, mice
# Ehrlich cell [4] = assay type: cell-based, mice; conditions: above 16 mM methionine, modified KRB medium with Na+, 1 min, 37 C, pH 7.4
# [5] = choline chloride substituting for NaCl, Exp. 1
# [6] = choline chloride substituting for NaCl, Exp. 2
# [7] = sucrose substituting for NaCl, Exp. 1
# [8] = sucrose substituting for NaCl, Exp. 2
# [9] = [Na+] 107 mEq/liter, 1 min, 37 C, pH 7.4
# [10] = methionine 0.25 mM + AIB 1.0 mM, 1 min, 37 C, pH 7.4
# [11] = methionine 0.5 mM + AIB 2.0 mM, 1 min, 37 C, pH 7.4
# [12] = methionine 1.0 mM + AIB 4.0 mM, 1 min, 37 C, pH 7.4
# [13] = read-out: Km of Na+-sensitive uptake, [Na+] 107 mEq/liter, 1 min, 37 C, pH 7.4
smiles,measurement,setting,value
"CC(C)(N)C(=O)O [AIB, a-aminoisobutyric acid, reference compound]","rate of permeation at high levels (""nonsaturable"" migration)",Ehrlich cell [1],0.1 min-'
same,uptake (Table II),[2]; [5],0.16 mmoles/kg cell water min
same,uptake (Table II),[2]; [6],0.21 mmoles/kg cell water min
same,uptake (Table II),[2]; [7],0.21 mmoles/kg cell water min
same,uptake (Table II),[2]; [8],0.29 mmoles/kg cell water min
same,inhibitory action on the uptake of methionine,[2],no significant inhibitory action
same,Uptake of methionine in presence of inhibitor (Table I),[2]; inhibitor 4 mM,2.63 mmoles/kg cell water-min
same,Uptake of methionine in presence of inhibitor (Table I),[2]; inhibitor 8 mM,2.62 mmoles/kg cell water-min
same,Vmax of Na+-sensitive uptake,[3]; [9],5 mmoles/kg cell water min
same,"Vmax, velocities extrapolated to infinite [Na+]",[3],7.1 mM/kg cell water min
same,Sodium-sensitive uptake rate of the test amino acid in mixture (Table III),[3]; [10],0.51 mmoles/kg cell water min
same,Sodium-sensitive uptake rate of the test amino acid in mixture (Table III),[3]; [11],0.64 mmoles/kg cell water min
same,Sodium-sensitive uptake rate of the test amino acid in mixture (Table III),[3]; [12],0.77 mmoles/kg cell water min
same,Km,[3]; [13],2000 µM
"CNC(C)(C)C(=O)O [MeAIB, α-(methylamino)-isobutyric acid, reference compound]",inhibitory action on the uptake of methionine,[2],no significant action
same,Uptake of methionine in presence of inhibitor (Table I),[2]; inhibitor 16 mM,1.77 mmoles/kg cell water-min
same,Km,[3]; [13],~300 µM
C[C@H](N)C(=O)O [alanine],Vmax of Na+-sensitive uptake,[3]; difference method of Fig. 5,6.4 mmoles per kg cell water min
NCC(=O)O [glycine],Vmax of Na+-sensitive uptake,[3]; difference method of Fig. 5,7.4 mmoles per kg cell water min
CC(C)C[C@H](N)C(=O)O [leucine],Km,[2],150 µM
"CSCC[C@H](N)C(=O)O [methionine, L-methionine]",Rate of methionine uptake (Table IV),"[2]; pH 5.6, Exp. 1",3.03 mmoles/kg cell water min
same,Rate of methionine uptake (Table IV),"[2]; pH 5.6, Exp. 2",2.99 mmoles/kg cell water min
same,Rate of methionine uptake (Table IV),"[2]; pH 6.3, Exp. 1",3.03 mmoles/kg cell water min
same,Rate of methionine uptake (Table IV),"[2]; pH 6.3, Exp. 2",3.08 mmoles/kg cell water min
same,Rate of methionine uptake (Table IV),"[2]; pH 7.0, Exp. 1",2.86 mmoles/kg cell water min
same,Rate of methionine uptake (Table IV),"[2]; pH 7.0, Exp. 2",2.87 mmoles/kg cell water min
same,inhibitory action on the residual uptake of AIB,[2]; Na+ replaced with choline+ (Table I),negligible inhibitory action
same,distribution ratio (cellular level to extracellular level),"[2]; after 1 min, all Na+ eliminated from the medium",2.25
same,uptake (Table II),[2]; [5],1.35 mmoles/kg cell water min
same,uptake (Table II),[2]; [6],2.48 mmoles/kg cell water min
same,uptake (Table II),[2]; [7],1.44 mmoles/kg cell water min
same,uptake (Table II),[2]; [8],2.79 mmoles/kg cell water min
same,Uptake of AIB in presence of inhibitor (Table I),[2]; inhibitor 0.5 mM,0.17 mmoles/kg cell water-min
same,Uptake of AIB in presence of inhibitor (Table I),[2]; inhibitor 1 mM,0.14 mmoles/kg cell water-min
same,Uptake of labeled amino acid without inhibitor (Table I),[2]; experiment with AIB as inhibitor,2.68 mmoles/kg cell water-min
same,Uptake of labeled amino acid without inhibitor (Table I),[2]; experiment with MeAIB as inhibitor,1.77 mmoles/kg cell water-min
same,Ratio of uptake Methionine/other amino acid (Table VI),"[2]; methionine and leucine, each 0.2 mM",0.99
same,Ratio of uptake Methionine/other amino acid (Table VI),"[2]; methionine and leucine, each 0.4 mM",0.94
same,Ratio of uptake Methionine/other amino acid (Table VI),"[2]; methionine and leucine, each 0.8 mM",0.92
same,Ratio of uptake Methionine/other amino acid (Table VI),"[2]; methionine and leucine, each 1.6 mM",0.99
same,Ratio of uptake Methionine/other amino acid (Table VI),"[2]; methionine and valine, each 0.25 mM",3.2
same,Ratio of uptake Methionine/other amino acid (Table VI),"[2]; methionine and valine, each 0.5 mM",2.18
same,Ratio of uptake Methionine/other amino acid (Table VI),"[2]; methionine and valine, each 1.0 mM",1.65
same,Ratio of uptake Methionine/other amino acid (Table VI),"[2]; methionine and valine, each 2.0 mM",1.33
same,linear slope of increase of uptake rate with methionine concentration,Ehrlich cell [4],0.09 min- l
same,inhibition of the saturable uptake of AIB,"[3]; Na+ at 107 mEq/liter, Fig. 10",so nearly complete
same,Vmax of Na+-sensitive uptake,[3]; [9],4 mmoles/kg cell water min and 3.7 mmoles/kg cell water min
same,"Vmax, velocities extrapolated to infinite [Na+]",[3],5.0 mM/kg cell water min
same,inhibition of the uptake of MeAIB,[3]; in the presence of Na+,inhibits almost completely
same,Ratio of uptake rates methionine/AIB (Table III),[3]; methionine 0.25 mM + AIB 1.0 mM,1.1
same,Sodium-sensitive uptake rate of the test amino acid in mixture (Table III),[3]; [10],0.58 mmoles/kg cell water min
same,Ratio of uptake rates methionine/AIB (Table III),[3]; methionine 0.5 mM + AIB 2.0 mM,1.5
same,Sodium-sensitive uptake rate of the test amino acid in mixture (Table III),[3]; [11],0.99 mmoles/kg cell water min
same,Ratio of uptake rates methionine/AIB (Table III),[3]; methionine 1.0 mM + AIB 4.0 mM,1.4
same,Sodium-sensitive uptake rate of the test amino acid in mixture (Table III),[3]; [12],1.04 mmoles/kg cell water min
same,Km,[3]; [13],300 µM
same,Km,"[3]; read-out: Km, velocities extrapolated to infinite [Na+], data of Fig. 12 left",140 µM
CC(C)[C@H](N)C(=O)O [valine],Km,[2],750 µM
